These results are taken from US20230143604A1, “QW DOSING OF GIP RECEPTOR AGONIST PEPTIDE COMPOUNDS AND USES THEREOF” (TAKEDA PHARMACEUTICAL COMPANY LIMITED, priority 2020, published 2023).

The target in data set [1] is T1, human GIPR (Homo sapiens, UniProt P48546).
T1 construct: HEK-293T cells overexpressing full-length human GIPR; FLAG (N); host or cells: HEK-293T
T1 sequence (P48546 22-466): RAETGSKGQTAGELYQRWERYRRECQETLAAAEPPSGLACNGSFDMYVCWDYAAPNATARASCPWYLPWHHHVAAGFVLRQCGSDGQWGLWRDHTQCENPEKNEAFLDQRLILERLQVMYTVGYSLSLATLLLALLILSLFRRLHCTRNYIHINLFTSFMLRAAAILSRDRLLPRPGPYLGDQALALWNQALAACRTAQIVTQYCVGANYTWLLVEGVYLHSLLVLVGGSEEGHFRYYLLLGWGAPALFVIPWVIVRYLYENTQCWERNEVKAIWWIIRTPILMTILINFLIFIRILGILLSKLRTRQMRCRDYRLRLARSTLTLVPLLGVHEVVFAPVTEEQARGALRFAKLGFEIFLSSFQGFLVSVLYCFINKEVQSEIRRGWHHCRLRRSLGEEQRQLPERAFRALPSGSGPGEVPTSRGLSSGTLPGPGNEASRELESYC
The data set can be described thus: Human GIPR agonist activity, intracellular cAMP accumulation. The class given is cell-based. As to the method:
Cells are cultured per the manufacturer's protocol in DMEM with 10% fetal bovine serum and 1 μg/mL puromycin and stored in frozen aliquots to be used as assay ready cells. On the day of the assay, cells are removed from frozen storage, washed two times in 1× Kreb's Ringer Buffer (Zenbio, Research Triangle Park, N.C.), and re-suspended to a concentration of 4×10^5 cells/mL in 1× Kreb's Ringer Buffer. […] Cells are incubated with test compound for 1 hr at room temperature in the dark, and cAMP accumulation is measured using the Cisbio HiRange cAMP assay kit (Bedford, Mass.) per the manufacturer's protocol. Anti-cAMP antibody and d2-cAMP tracer reagents diluted in lysis/detection buffer are incubated in the dark for 1 hr, and results are measured on an Envision plate reader (Perkin Elmer, Waltham, Mass.). Data is normalized using 1 nM GIP as 100% activity, and DMSO alone as 0% activity.
Background: Cyclic AMP is a second messenger, typically raised through Gs and lowered through Gi signalling.

The target of data set [2] is T2, human GLP-1R (Homo sapiens, UniProt P43220).
T2 construct: HEK-293T cells overexpressing full-length human GLP-1R; FLAG (N); host or cells: HEK-293T
T2 sequence (P43220 24-463): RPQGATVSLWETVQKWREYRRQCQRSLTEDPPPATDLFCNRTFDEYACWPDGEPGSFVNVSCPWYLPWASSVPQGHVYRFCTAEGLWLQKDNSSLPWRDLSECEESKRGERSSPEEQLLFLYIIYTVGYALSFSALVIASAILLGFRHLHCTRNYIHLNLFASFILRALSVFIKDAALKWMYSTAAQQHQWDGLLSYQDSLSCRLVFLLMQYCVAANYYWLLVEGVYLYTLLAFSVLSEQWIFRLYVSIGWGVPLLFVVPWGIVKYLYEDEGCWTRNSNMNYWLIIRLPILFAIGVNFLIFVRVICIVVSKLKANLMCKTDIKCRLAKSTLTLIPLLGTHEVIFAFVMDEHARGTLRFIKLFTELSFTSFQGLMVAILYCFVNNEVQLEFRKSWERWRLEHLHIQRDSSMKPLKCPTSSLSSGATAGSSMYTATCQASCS
The data set can be described thus: Human GLP1R agonist activity, intracellular cAMP accumulation. The class given is cell-based. To be noted: Human GLP1R cAMP EC50, HEK293T (nM), HEK-293T cells overexpressing human GLP-1R, 1 hr. The procedure, abridged: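 cAMP accumulation is measured by HTRF after a 1 hr, room-temperature, dark exposure of thawed cells (4×10^5 cells/mL in Krebs Ringer buffer) to compound. Activity is scaled between DMSO alone as 0% and 1 nm GLP-1 as 100%.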

Data set [3] deals with C57BL/6J mice. Put plainly: Oral glucose tolerance test (OGTT). The class given is in vivo. To be noted: 3 nmol/kg s.c., 24 hours before glucose loading. The procedure, abridged:
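Peptide or vehicle given s.c. at 0.1, 0.3, 3 or 10 nmol/kg (peptide-dependent), 24 h before oral 50% dextrose at 5 ml/kg unless stated otherwise. Blood glucose read at 0, 15, 30 and 60 min. % inhibition = (1−(AUC cpd−AUC naïve)/(AUC veh−AUC naïve))×100.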

Data set [4] is described as follows: Solubility in phosphate buffer pH 7.4. The procedure, abridged: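 Solubility at pH 7.4 determined by stepwise addition of 200 mM phosphate buffer in 100 μL increments to 3 mg peptide, mixing briefly each time, until no insoluble material remained, then measured by liquid chromatography.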
The subject of data set [5] is male ferrets. The class given is in vivo. The following applies: in vivo, sc, 24 h. As to the method:
1. Effect of subcutaneously administered GIP receptor agonist peptide in morphine-induced acute emetic model.
To evaluate the antiemetic effect, the GIP receptor agonist peptides other than natural human GIP are subcutaneously administered into male ferrets 24 hrs before morphine administration. Up to 60 minutes after morphine administration, the condition of the ferrets is monitored to record the frequencies and time points of abdominal contraction motions, vomiting behaviors, licking with the tongue, and fidgety behavior occurring. GIP receptor agonist peptide compounds of the present disclosure dosed at 0.3-10 nmol/kg attenuated the morphine (0.6 mg/kg, s.c.)-induced emesis in the ferrets.
GIP receptor agonist peptides are dissolved with a vehicle (0.09 w/v % tween 80/10% DMSO/saline), respectively, to prepare test solutions. […] of the test solutions and the vehicle are subcutaneously administered to ferrets (4 in each group), respectively. At the time of each of 4 or 24 hours after administration, 0.6 mg/kg of morphine is subcutaneously administered.

Data set [6] is described as follows: Human plasma protein binding (PPB). The class given is in vitro ADME. In short, it runs like this: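 Peptides spiked at 1000 nmol/L into pooled human K2-EDTA plasma adjusted to pH 7.4, incubated 30 min at 37 °C, then ultracentrifuged at ~450,000 g, 4 °C for 3 h. Fu derived from LC-MS/MS (MRM) peak area ratios, supernatant versus plasma.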
Data set [7] in a line: Dog plasma protein binding (PPB). The class given is in vitro ADME. To be noted: pH 7.4; fraction unbound; dog serum; read-out: Dog PPB (FUplasma). The procedure, abridged:
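Fraction unbound (Fu,plasma) is given as a percentage. It was measured with the method and analysis of the human protein-binding protocol, but using dog serum in place of human serum.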

Data set [8] can be described thus: Pharmacokinetics in dog after IV and SC dosing. To be noted: in vivo. In short, it runs like this:
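Dogs were dosed IV or SC at 1 mL/kg with peptide at 3 nmol/mL in 10% DMSO/0.09% Polysorbate/PBS pH 7.4. K2-EDTA plasma was sampled to 336 h, and peptide was quantified by LCMS to derive half-life.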

Where [9] appears, read: pH 7.4, aqueous buffer, pH 7.4 Phosphate Buffer - Solubility, 200 mM Phosphate buffer pH 7.4.
[10] abbreviates: pH 7.4, solubility in phosphate buffer at pH 7.4, 200 mM phosphate buffer pH 7.4.
The mark [11] stands for this setting: both sexes, pH 7.4, fraction unbound, human plasma, 1000 nmol/L peptide, ultracentrifugation, read-out: Human PPB (FUplasma).

Starred links: 1 amine or outer side, 2 acyl side, 3 side chain; linkers in the order of their positions; H or OH if unused. Non-standard residues stand in square brackets, D forms with d. Residues, ends and D or L forms follow the SMILES beside them. Groups on a side chain read outwards from the residue. *: point of attachment. C18 diacid = O=C(O)CCCCCCCCCCCCCCCCC(=O)*; γGlu = O=C(O)[C@H](CCC(=O)[*:2])N[*:1]; NMeY = CN[C@@H](Cc1ccc(O)cc1)C(=O)O; AEEA = NCCOCCOCC(=O)O; Aib = CC(C)(N)C(=O)O

Usually EC50 stands for the concentration at which the effect is half-maximal. Read a low EC50 as an effect from little substance. In general, solubility refers to how much of the substance goes into solution per volume. Read a low solubility as a poorly soluble substance. Take `CC[C@H](C)[C@H](NC(=O)[C@H](CO)NC(=O)[C@H](Cc1ccc(O)cc1)NC(=O)[C@H](CC(=O)O)NC(=O)[C@H](CO)NC(=O)[C@@H](NC(=O)[C@H](Cc1ccccc1)NC(=O)[C@@H](NC(=O)CNC(=O)[C@H](CCC(=O)O)NC(=O)C(C)(C)NC(=O)[C@H](Cc1ccc(O)cc1)NC)[C@@H](C)O)[C@@H](C)CC)C(=O)N[C@@H](C)C(=O)N[C@@H](CCCCNC(=O)CNC(=O)CNC(=O)CNC(=O)CNC(=O)CNC(=O)CCCCCCCCCCCCCCCCC(=O)O)C(=O)N[C@@H](CC(=O)O)C(=O)N[C@@H](CCCNC(=N)N)C(=O)NC(C)(C)C(=O)N[C@@H](C)C(=O)N[C@@H](CCC(N)=O)C(=O)NC(C)(C)C(=O)N[C@@H](CC(=O)O)C(=O)N[C@@H](Cc1ccccc1)C(=O)N[C@H](C(=O)N[C@@H](CC(N)=O)C(=O)N[C@@H](Cc1c[nH]c2ccccc12)C(=O)N[C@@H](CC(C)C)C(=O)N[C@@H](CC(C)C)C(=O)N[C@@H](C)C(=O)N[C@@H](CCC(N)=O)C(=O)N[C@@H](CCCNC(=N)N)C(=O)N1CCC[C@H]1C(=O)N[C@@H](CO)C(=O)N[C@@H](CO)C(=O)NCC(=O)N[C@@H](C)C(=O)N1CCC[C@H]1C(=O)N1CCC[C@H]1C(=O)N1CCC[C@H]1C(=O)N[C@@H](CO)C(=O)O)C(C)C` [Compound 43]: the values for the EC50 in data set [1] and in data set [2] were 0.001 nM and 61.7 nM, respectively. Further, in data set [3], the “Oral Glucose Tolerance Test Percent decrease in blood glucose AUC (%) over 60 mins” value is reported as 97% (3 nmol/kg). In addition, the solubility in data set [4] (setting [9]) is not below 30 mg/mL; in data set [4] (setting [10]), not below 15 mg/mL.

By MRT last is commonly meant a mean duration of stay, worked out from the concentration-time curve. For the compound `CC[C@H](C)[C@H](NC(=O)[C@H](Cc1ccccc1)NC(=O)[C@@H](NC(=O)CNC(=O)[C@H](CCC(=O)O)NC(=O)C(C)(C)NC(=O)[C@H](Cc1ccc(O)cc1)NC)[C@@H](C)O)C(=O)N[C@@H](CO)C(=O)N[C@@H](CC(=O)O)C(=O)N[C@@H](Cc1ccc(O)cc1)C(=O)N[C@@H](CO)C(=O)N[C@H](C(=O)NC(C)(C)C(=O)N[C@@H](CC(C)C)C(=O)N[C@@H](CC(=O)O)C(=O)N[C@@H](CCCNC(=N)N)C(=O)NC(C)(C)C(=O)N[C@@H](C)C(=O)N[C@@H](CCC(N)=O)C(=O)NC(C)(C)C(=O)N[C@@H](CCCCNC(=O)COCCOCCNC(=O)COCCOCCNC(=O)CC[C@H](NC(=O)CC[C@H](NC(=O)CCCCCCCCCCCCCCCCC(=O)O)C(=O)O)C(=O)O)C(=O)N[C@@H](Cc1ccccc1)C(=O)N[C@H](C(=O)N[C@@H](CC(N)=O)C(=O)N[C@@H](Cc1c[nH]c2ccccc12)C(=O)N[C@@H](CC(C)C)C(=O)N[C@@H](CC(C)C)C(=O)N[C@@H](C)C(=O)N[C@@H](CCC(N)=O)C(=O)N[C@@H](CCCNC(=N)N)C(=O)NCC(=O)O)C(C)C)[C@@H](C)CC` [Compound 72, Me-Y-Aib-E-G-T-F-I-S-D-Y-S-I-Aib-L-D-R-Aib-A-Q-Aib-Km-F-V-N-W-L-L-A-Q-R-G-OH] (H-[NMeY][Aib]EGTFISDYSI[Aib]LDR[Aib]AQ[Aib]K([AEEA-AEEA-γGlu-γGlu-C18 diacid])FVNWLLAQRG-OH), the “% inhibition of emetic events at doses (nmol/kg) and timepoints shown in ferret morphine model” value in data set [5] is recorded as 100% (3 nmol/kg); 100%. Also, the fraction unbound stood at 0.0036 in data set [6] (setting [11]) and 0.0062 in data set [7]. Besides, in data set [6] (judged for once per week (QW) dosing), the “free unbound peptide in human plasma (in words)” value is recorded as “optimum free unbound peptide”. Besides, the solubility in data set [4] (pH 7.4) is not below 15 mg/mL; in data set [4] (pH 7.4, aqueous buffer) it was not below 60 mg/mL. In addition, the half-life in data set [8] (IV 3 nmol/kg, read-out: IV T½ (converted)) was 92 h. For the same compound, in data set [8] (SC 3 nmol/kg, read-out: SC MRT 0-last), the MRT last worked out at 125 h.

Consider `CC[C@H](C)[C@H](NC(=O)[C@H](CO)NC(=O)[C@H](Cc1ccc(O)cc1)NC(=O)[C@H](CC(=O)O)NC(=O)[C@H](CO)NC(=O)[C@@H](NC(=O)[C@H](Cc1ccccc1)NC(=O)[C@@H](NC(=O)CNC(=O)[C@H](CCC(=O)O)NC(=O)C(C)(C)NC(=O)[C@H](Cc1ccc(O)cc1)NC)[C@@H](C)O)[C@@H](C)CC)C(=O)N[C@@H](C)C(=O)N[C@@H](CCCCNC(=O)CNC(=O)CNC(=O)CNC(=O)CNC(=O)CNC(=O)CCCCCCCCCCCCCCCCC(=O)O)C(=O)N[C@@H](CC(=O)O)C(=O)N[C@@H](CCCNC(=N)N)C(=O)NC(C)(C)C(=O)N[C@@H](C)C(=O)N[C@@H](CCC(N)=O)C(=O)NC(C)(C)C(=O)N[C@@H](CC(N)=O)C(=O)N[C@@H](Cc1ccccc1)C(=O)N[C@H](C(=O)N[C@@H](CC(N)=O)C(=O)N[C@@H](Cc1c[nH]c2ccccc12)C(=O)N[C@@H](CC(C)C)C(=O)N[C@@H](CC(C)C)C(=O)N[C@@H](C)C(=O)N[C@@H](CCC(N)=O)C(=O)N[C@@H](CCCNC(=N)N)C(=O)N1CCC[C@H]1C(=O)N[C@@H](CO)C(=O)N[C@@H](CO)C(=O)NCC(=O)N[C@@H](C)C(=O)N1CCC[C@H]1C(=O)N1CCC[C@H]1C(=O)N1CCC[C@H]1C(=O)N[C@@H](CO)C(=O)O)C(C)C` [Compound 44], for which the EC50 in data set [1] was determined as 0.0017 nM; in data set [2], 10.7 nM. In data set [3], the “Oral Glucose Tolerance Test Percent decrease in blood glucose AUC (%) over 60 mins” value is listed as 119% (3 nmol/kg). Besides, the fraction unbound at 30 min, 1000 nmol/L was 0.0007 in data set [6] (setting [11]) and 0.0004 in data set [7]. For the same compound, the solubility in data set [4] (setting [9]) is not below 30 mg/mL; in data set [4] (setting [10]), not below 15 mg/mL.
